Experimental data as given in patent publication US10793557B2, “Sting agonist compounds” (Merck Sharp & Dohme Corp., priority 2018, dated 2020).

Assays:
full-length HAQ STING = target: T1, full-length HAQ STING (Homo sapiens, UniProt Q86WV6, G230A/H232R/R293Q/R71H); assay: 3H-cGAMP filtration binding assay (HAQ STING); conditions: competition with tritiated cGAMP, HAQ STING membrane
T1 construct: AviTag (after GG linker) (C); HRV3C cleavage site (after GS linker) (C); HIS8 (C); made in house; host or cells: Trichoplusia ni (Hi-Five) insect cells infected with baculovirus (virus generated and amplified in Sf21 cells); used as a washed membrane preparation
Summary of the method: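 Hi-Five (T. ni) membranes overexpressing the STING variant (2.2 ug/ml working) preincubated with compound 60 min at RT in PBS, then [3H]cGAMP (8 nM working stock) added for 60 min at RT. Bound radioactivity captured on GF/B filters and counted by scintillation; EC50 from 4-parameter fit of control-normalized activity.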

full-length WT STING = target: T2, full-length WT STING (Homo sapiens, UniProt Q86WV6, H232R); assay: 3H-cGAMP filtration binding assay (WT STING); conditions: for EC50: competition with tritiated cGAMP, WT STING membrane
T2 construct: AviTag (after gg linker) (C); HRV3C cleavage site (after gs linker) (C); HIS8 (C); made in house; host or cells: Trichoplusia ni (Hi-Five) insect cells infected with baculovirus (virus generated and amplified in Sf21 cells); used as a washed membrane preparation
Summary of the method: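 Competitive filtration binding of [3H]cGAMP (16 nM working stock) to T. ni membranes overexpressing full-length WT human STING, 60 min at RT in PBS. Bound radioactivity counted after GF/B filtration; 10-point 1:3 titration, EC50 from 4-parameter fit after control normalisation.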

[1] = tested on: secretion of interferon-beta from THP1 cells; assay: IFN-β secretion in THP1 cell culture (5 h); assay type: cell-based; conditions: Homo sapiens, THP-1, 5 h, compound at 30 μM, 30 uM cGAMP = 100%, read-out: % Effect at 30 μM relative to 2′3′-cGAMP
Summary of the method: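 Thawed THP1 cells (0.8×10^6/mL, RPMI with 0.5% FBS) exposed to compounds 1.5–30000 nM (0.3% DMSO) for 5 h at 37 °C. Supernatant IFN-β quantified by AlphaLISA. Percent effect normalised to 30 uM cGAMP and DMSO controls; EC50 from 4-parameter fit.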

T2 sequence (Q86WV6 with tags, fused parts or gaps H232R): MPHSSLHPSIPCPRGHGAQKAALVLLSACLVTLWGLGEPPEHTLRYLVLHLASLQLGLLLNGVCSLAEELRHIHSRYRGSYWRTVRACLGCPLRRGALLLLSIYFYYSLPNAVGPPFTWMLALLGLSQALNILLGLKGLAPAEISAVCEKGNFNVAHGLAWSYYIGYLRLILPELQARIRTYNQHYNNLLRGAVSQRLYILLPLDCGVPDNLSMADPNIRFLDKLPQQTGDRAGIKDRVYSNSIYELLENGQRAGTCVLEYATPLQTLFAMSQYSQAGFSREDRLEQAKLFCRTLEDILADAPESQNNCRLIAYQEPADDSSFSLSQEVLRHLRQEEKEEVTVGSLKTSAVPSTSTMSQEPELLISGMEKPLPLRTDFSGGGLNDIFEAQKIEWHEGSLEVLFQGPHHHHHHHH
T1 sequence (Q86WV6 with tags, fused parts or gaps R71H/G230A/H232R/R293Q): as the sequence (Q86WV6 with tags, fused parts or gaps H232R) above, with R71H, G230A, R293Q counted along it

Compound	EC50 (full-length HAQ STING)	EC50 (full-length WT STING)	inhibition at 20 µM (full-length WT STING; at 20,000 nM compound)	activation at 30 µM [1]
COc1cc2sc(C(=O)C[C@H](C)C(=O)O)cc2nc1OCCOc1c(OC)cc2sc(C(=O)CCC(=O)O)cc2c1F [Example 20, (S)-4-(5-(2-((2-(3-carboxypropanoyl)-4-fluoro-6-methoxybenzo[b]thiophen-5-yl)oxy)ethoxy)-6-methoxythieno[3,2-b]pyridin-2-yl)-2-methyl-4-oxobutanoic acid]	7 nM	24 nM		63%
COc1cc2sc(C(=O)C[C@H](C)C(=O)O)cc2nc1OCCCOc1c(OC)cc2sc(C(=O)CCC(=O)O)cc2c1F [Example 21, (S)-4-(5-(3-((2-(3-carboxypropanoyl)-4-fluoro-6-methoxybenzo[b]thiophen-5-yl)oxy)propoxy)-6-methoxythieno[3,2-b]pyridin-2-yl)-2-methyl-4-oxobutanoic acid]	1 nM	5 nM		59%
COc1cc2sc(C(=O)CCC(=O)O)cc2nc1OCCCOc1c(OC)cc2sc(C(=O)C[C@H](C)C(=O)O)cc2c1F [Example 23, (S)-4-(5-(3-((2-(3-carboxypropanoyl)-6-methoxythieno [3,2-b]pyridin-5-yl)oxy)propoxy)-4-fluoro-6-methoxybenzo[b]thiophen-2-yl)-2-methyl-4-oxobutanoic acid]	1 nM	2 nM		83%
COc1cc2sc(C(=O)CCC#N)cc2cc1CCCc1cc2cc(C(=O)CCC(=O)O)sc2cc1OC [Example 24, 4-(5-(3-(2-(3-cyanopropanoyl)-6-methoxybenzo[b]thiophen-5-yl)propyl)-6-methoxybenzo[b]thiophen-2-yl)-4-oxobutanoic acid]	17800 nM		39%	150%
COc1cc2sc(C(=O)CCC(=O)O)cc2cc1CCCc1cc2cc(C(=O)CCC(=O)O)sc2cc1OC [Example 25, 4,4′-(5,5′-(propane-1,3-diyl)bis(6-methoxybenzo[b]thiophene-5,2-diyl))bis(4-oxobutanoic acid)]	6 nM	23 nM		136%
COc1cc(CCCc2cc3sc(C(=O)CCC(=O)O)cc3cc2OC)c2cc(C(=O)CCC(=O)O)sc2c1 [Example 26, 4-(4-(3-(2-(3-carboxypropanoyl)-5-methoxbenzo[b]thiophen-6-yl)propyl)-6-methoxybenzo[b]thiophen-2-yl)-4-oxobutanoic acid]	9 nM	19 nM		129%
COc1cc2sc(C(=O)CCC(=O)O)nc2cc1CCCc1cc2nc(C(=O)CCC(=O)O)sc2cc1OC [Example 27, 4,4′-(propane-1,3-diylbis(6-methoxybenzo[d]thiazole-5,2-diyl))bis(4-oxobutanoic acid)]	89 nM	362 nM		113%
Cc1cc2sc(C(=O)CCC(=O)O)cc2cc1CCCc1cc2cc(C(=O)CCC(=O)O)sc2cc1C [Example 28, 4,4′-(propane-1,3-diylbis(6-methylbenzo[b]thiophene-5,2-diyl))bis(4-oxobutanoic acid)]	46 nM	112 nM		116%
COc1cc2sc(C(=O)CCC(=O)O)cc2cc1CCCc1nc2cc(C(=O)CCC(=O)O)sc2cc1OC [Example 29, 4-(5-(3-(2-(3-carboxypropanoyl)-6-methoxybenzo [b]thiophen-5-yl)propyl)-6-methoxythieno[3,2-b]pyridin-2-yl)-4-oxobutanoic acid]	8 nM	44 nM		107%

Now from value to compound, other results behind:

EC50 (full-length HAQ STING)	EC50 (full-length WT STING)	inhibition at 20 µM (full-length WT STING; at 20,000 nM compound)	Compound	activation at 30 µM [1]
1000 nM	7520 nM		COc1cc2sc(C(=O)CCC(N)=O)cc2cc1CCCc1cc2cc(C(=O)CCC(=O)O)sc2cc1OC [Example 30, 4-(5-(3-(2-(4-amino-4-oxobutanoyl)-6-methoxybenzo[b]thiophen-5-yl)propyl)-6-methoxybenzo [b]thiophen-2-yl)-4-oxobutanoic acid]	103%
3320 nM	9480 nM		COc1cc2sc(CC[C@H](C)C(=O)O)cc2cc1CCCc1cc2cc(C(=O)CCC(=O)O)sc2cc1OC [Example 31, (S)-4-(5-(3-(2-(3-carboxybutyl)-6-methoxybenzo[b]thiophen-5-yl)propyl)-6-methoxybenzo[b]thiophen-2-yl)-4-oxobutanoic acid]	117%
4 nM	9 nM		COc1cc2sc(C(=O)CCC(=O)O)cc2cc1CCCOc1c(OC)cc2sc(C(=O)CCC(=O)O)cc2c1F [Example 32, 4-(5-(3-((2-(3-carboxypropanoyl)-4-fluoro-6-methoxybenzo[b]thiophen-5-yl)oxy)propyl)-6-methoxybenzo [b]thiophen-2-yl)-4-oxobutanoic acid]	117%
1 nM	4 nM		COc1cc2sc(C(=O)CCC(=O)O)cc2cc1CCCOc1c(OC)cc2sc(C(=O)C[C@H](C)C(=O)O)cc2c1F [Example 33, (S)-4-(5-(3-(2-(3-carboxypropanoyl)-6-methoxybenzo [b]thiophen-5-yl)propoxy)-4-fluoro-6-methoxybenzo[b]thiophen-2-yl)-2-methyl-4-oxobutanoic acid]	104%
3 nM	4 nM		COc1cc2sc(C(=O)CCC(=O)O)cc2cc1OCCOc1c(OC)cc2sc(C(=O)C[C@H](C)C(=O)O)cc2c1F [Example 34, (S)-4-(5-(2-((2-(3-carboxypropanoyl)-6-methoxybenzo [b]thiophen-5-yl)oxy)ethoxy)-4-fluoro-6-methoxybenzo[b]thiophen-2-yl)-2-methyl-4-oxobutanoic acid]	72%
2 nM	4 nM		COc1cc2sc(C(=O)C[C@H](C)C(=O)O)cc2cc1CCCOc1c(OC)cc2sc(C(=O)CCC(=O)O)cc2c1F [Example 35, (S)-4-(5-(3-((2-(3-carboxypropanoyl)-4-fluoro-6-methoxybenzo[b]thiophen-5-yl)oxy)propyl)-6-methoxybenzo[b]thiophen-2-yl)-2-methyl-4-oxobutanoic acid]	80%
4 nM	10 nM		COc1cc2sc(C(=O)CCC(=O)O)cc2cc1OCCOc1c(OC)cc2sc(C(=O)CCC(=O)O)cc2c1F [Example 36, 4-(5-(2-((2-(3-carboxypropanoyl)-4-fluoro-6-methoxybenzo[b]thiophen-5-yl)oxy)ethoxy)-6-methoxybenzo[b]thiophen-2-yl)-4-oxobutanoic acid]	102%
1 nM	2 nM		COc1cc2sc(C(=O)C[C@H](C)C(=O)O)cc2cc1CCCOc1c(OC)cc2sc(C(=O)C[C@H](C)C(=O)O)cc2c1F [Example 37, (S)-4-(5-(3-((2-((S)-3-carboxybutanoyl)-4-fluoro-6-methoxybenzo[b]thiophen-5-yl)oxy)propyl)-6-methoxybenzo[b]thiophen-2-yl)-2-methyl-4-oxobutanoic acid]	76%
695 nM	1040 nM		COc1cc2sc(C(=O)CCC(=O)O)cc2cc1OCCOc1cc2cc(C(=O)CCC(=O)O)sc2cc1OC [Example 38, 4,4′-((ethane-1,2-diylbis (oxy))bis(6-methoxybenzo [b]thiophene-5,2-diyl))bis(4-oxobutanoic acid)]	17%
1 nM	2 nM		COc1cc2sc(C(=O)CCC(=O)O)cc2cc1OCCCOc1c(OC)cc2sc(C(=O)C[C@H](C)C(=O)O)cc2c1F [Example 39, (S)-4-(5-(3-((2-(3-carboxypropanoyl)-6-methoxybenzo [b]thiophen-5-yl)oxy)propoxy)-4-fluoro-6-methoxybenzo[b]thiophen-2-yl)-2-methyl-4-oxobutanoic acid]	75%
86 nM	1360 nM		COc1cc2cc(C(=O)C[C@H](C)C(=O)O)sc2cc1OCCCc1nc2c(o1)c(OC)cc1sc(C(=O)C[C@H](C)C(=O)O)cc12 [Example 40, (S)-4-(6-(3-(7-((S)-3-carboxybutanoyl)-4-methoxythieno[2′,3′:5,6]benzo[1,2-d]oxazol-2-yl)propoxy)-5-methoxybenzo [b]thiophen-2-yl)-2-methyl-4-oxobutanoic acid]	27%
16 nM	50 nM		COc1cc2sc(C(=O)C[C@H](C)C(=O)O)cc2cc1CCCOc1cc2cc(C(=O)C[C@H](C)C(=O)O)sc2cc1OC [Example 41, (2S)-4-{5-[3-({2-[(3S)-3-carboxybutanoyl]-6-methoxy-1-benzothiophen-5-yl}oxy)propyl]-6-methoxy-1-benzothiophen-2-yl}-2-methyl-4-oxobutanoic acid]	117%
